Measured values as given in PubChem BioAssay AID435029 (Sanford-Burnham Center for Chemical Genomics, 2010).
Active and inactive are the calls of the source. The rule behind the calls is not given here.

The compounds below were run on HIV Env-mediated cell-cell fusion, luminescence reporter (assay: HIV Env-driven cell-cell fusion inhibition, SAR follow-up, luminescence reporter (AID 435029)).

Structure (SMILES)	IC50
O=C(O)c1cc(NN=Cc2ccc(-c3ccccc3)cc2)ccc1Cl	10 µM
COc1cc(C=NNc2ccc(Cl)c(C(=O)O)c2)ccc1OC(=O)c1ccccc1F	68 µM
O=C(O)c1ccccc1N=Nc1c(O)[nH]c2ccc([N+](=O)[O-])cc12	> 100 µM (inactive)
COc1ccc(C(=O)Oc2ccc(C=NNc3ccc(Cl)c(C(=O)O)c3)cc2OC)cc1	13 µM
COc1cc(C=NNc2ccc(Cl)c(C(=O)O)c2)ccc1OC(=O)c1ccc(F)cc1	30 µM
N#C/C(=C\c1ccc(O)c([N+](=O)[O-])c1)c1nc2ccccc2s1	4.65 µM
O=C(N/N=C/c1c(O)n(C2CCCCC2)c(=S)[nH]c1=O)c1ccccc1O	11.5 µM
CCOC(=O)c1sc(N2C(=O)C(O)=C(C(=O)c3ccc(C)o3)C2c2cccc([N+](=O)[O-])c2)nc1C (stereo not given)	5.1 µM
Cc1c2c(=O)n(-c3nc4ccccc4s3)nc-2cc(O)n1Cc1ccccc1	6.58 µM
CC(C)(C)c1cc(-c2csc(Nc3ccccc3)[n+]2Cc2ccc(C(=O)O)cc2)cc(C(C)(C)C)c1O	3.5 µM
